Peptide text beside a SMILES is read from it. * marks the point of attachment. Cbz = O=C(OCc1ccccc1)*
What was measured:
L6 cell line = test: Confirmation of whether muscle actin is Arg/N-degron pathway substrate (immunoblotting); type: cell-based, rat; conditions: MG132 10 uM, 24 hours
Protocol: A L6 cell line, which is a rat muscle-derived cell, was cultured using a DMEM medium containing 10% FBS and 1% streptomycin/penicillin in an incubator in which 5% carbon dioxide was maintained, and cells were aliquoted into a 12-well plate after the culture. The cells were additionally cultured for 24 hours so as to be completely attached to the surface of the plate. To confirm whether MG132 increased UBR1 binding, cells were collected after treatment with MG132 (10 uM) alone for 24 hours. To extract proteins from the collected cells, 50 uL of a lysis buffer (20 mM Tris, pH 7.4, 150 mM NaCl, 1% Triton-X-100, 2 mM NaF, 2 mM EDTA, 2 mM b-glycerophosphate, 5 mM sodium orthovanadate, 1 mM PMSF, leupeptin, aprotenin) was injected into each sample, and the cells were lysed. A sample buffer was added to each sample based on the measured total protein concentration, and the mixture was reacted at 100° C. for 5 minutes. After 5 uL was taken from the completely reacted sample and aliquoted into each well of an acrylamide gel, an immunoblotting method was performed, and the experimental results are illustrated in [FIG. 1]. For the immunoblotting method, a representative experiment was schematized from three or more independent experiments.

UBR1 [1] = molecular target: T1, UBR1 (Rattus norvegicus, UniProt A0A8I5ZK69); test: UBR box domain binding strength by immunoprecipitation analysis, UBR1; type: cell-based; conditions: L6 cell line, 24 hours, immunoprecipitation and immunoblotting
T1 construct: endogenous in cells; host or cells: L6 rat muscle-derived cells
Protocol: (§1) To evaluate the binding strength of the compounds to UBR1, UBR2, UBR3 and UBR5 through the UBR box domain, a L6 cell line, which is a rat muscle-derived cell, was cultured using a DMEM medium containing 10% FBS and 1% streptomycin/penicillin in an incubator in which 5% carbon dioxide was maintained. In order to measure the UBR1 binding strength according to the treatment with a representative compound selected from the present compounds, cells were aliquoted into a 100 pi dish. The cells were additionally cultured for 24 hours so as to be completely attached to the surface of the plate. […] To extract proteins from the collected cells, 50 uL of a lysis buffer (20 mM Tris, pH 7.4, 150 mM NaCl, 1% Triton-X-100, 2 mM NaF, 2 mM EDTA, 2 mM b-glycerophosphate, 5 mM sodium orthovanadate, 1 mM PMSF, leupeptin, aprotenin) was injected into each sample, and the cells were lysed. Each sample was reacted with a UBR1 antibody for 16 hours based on the measured total protein concentration, and then reacted with Protein A/G beads for 3 hours. A sample buffer was added to the completely reacted sample and the resulting mixture was reacted at 100° C. for 5 minutes. After 20 uL was taken from the completely reacted sample and aliquoted into each well of an acrylamide gel, an immunoblotting method was performed, and the experimental results are illustrated in [FIG. 10] and [FIG. 11]. […]

UBR1 [2] = test: Inhibition of R-nsP4 degradation by in vitro transcription/translation method; type: biochemical; conditions: compound 1 uM, 30° C. for 40 minutes, DHFR-Ub-R-nsP4 plasmid, immunoblotting
Protocol: A TnT® Quick Coupled Transcription/Translation System kit was used to confirm the R-nsP4 expression of the compounds. After a pre-mix was made using Transcend Biotin-Lysyl-tRNA, methionine, bestatin, a TnTquick Master mix and a DHFR-Ub-R-nsP4 plasmid, the pre-mix was mixed with a compound (1 uM). After each sample was reacted at 30° C. for 40 minutes, a 5×SDS loading dye was added thereto. After the resulting mixture was reacted at 95° C. for 2 minutes, 5 uL was taken and aliquoted into each well of an acrylamide gel, and then an immunoblotting method was performed, and the experimental results are illustrated in [FIG. 2]. For an in vitro transcription/translation method, a representative experiment was schematized from three or more independent experiments.
Referring to FIG. 2, it can be confirmed that the level of R-nsP4 is increased by Compound 2, Compound 3, Compound 7, Compound 12, Compound 14, and Compound 16 compared to the control. That is, it could be confirmed that in the case of treatment with the compound according to the present invention, the R-nsP4 level was increased by binding to UBR1.

UBR1 [3] = molecular target: T1, UBR1; test: Inhibition of intracellular RGS4 degradation by transfection (immunoblotting); type: cell-based; conditions: L6 cell line transfected with RGS4 plasmid, compound 5 uM, 24 hours
Protocol: A L6 cell line, which is a rat muscle-derived cell, was cultured using a DMEM medium containing 10% FBS and 1% streptomycin/penicillin in an incubator in which 5% carbon dioxide was maintained. In order to measure the UBR1 binding strength according to the treatment with a representative compound selected from the present compounds, cells were aliquoted into a 6-well plate. The cells were additionally cultured for 24 hours so as to be completely attached to the surface of the plate. Opti-MEM, Lipofectamine, and an RGS4plasmid was reacted for transfection. After the reaction was completed, the cells are treated such that DNA was expressed intracellularly. […] To extract proteins from the collected cells, 50 uL of a lysis buffer (20 mM Tris, pH 7.4, 150 mM NaCl, 1% Triton-X-100, 2 mM NaF, 2 mM EDTA, 2 mM b-glycerophosphate, 5 mM sodium orthovanadate, 1 mM PMSF, leupeptin, aprotenin) was injected into each sample, and the cells were lysed. A sample buffer was added to each sample based on the measured total protein concentration, and the mixture was reacted at 100° C. for 5 minutes. After 5 uL was taken from the completely reacted sample and aliquoted into each well of an acrylamide gel, an immunoblotting method was performed, and the experimental results are illustrated in [FIG. 3]. […]

UBR1 [4] = molecular target: T1, UBR1; test: Inhibition of muscle cell actin degradation by immunoblotting; type: cell-based; conditions: L6 cell line, compound 5 uM, 24 hours
Protocol: To evaluate the actin degradation of compounds in muscle cells, a L6 cell line, which is a rat muscle-derived cell, was cultured using a DMEM medium containing 10% FBS and 1% streptomycin/penicillin in an incubator in which 5% carbon dioxide was maintained. In order to measure the UBR1 binding strength according to the treatment with a representative compound selected from the present compounds, cells were aliquoted into a 12-well plate. The cells were additionally cultured for 24 hours so as to be completely attached to the surface of the plate. […] To extract proteins from the collected cells, 50 uL of a lysis buffer (20 mM Tris, pH 7.4, 150 mM NaCl, 1% Triton-X-100, 2 mM NaF, 2 mM EDTA, 2 mM b-glycerophosphate, 5 mM sodium orthovanadate, 1 mM PMSF, leupeptin, aprotenin) was injected into each sample, and the cells were lysed. A sample buffer was added to each sample based on the measured total protein concentration, and the mixture was reacted at 100° C. for 5 minutes. After 5 uL was taken from the completely reacted sample and aliquoted into each well of an acrylamide gel, an immunoblotting method was performed, and the experimental results were illustrated in [FIG. 4], [FIG. 5], [FIG. 6], [FIG. 7], [FIG. 8], and [FIG. 9]. For the immunoblotting method, a representative experiment was schematized from three or more independent experiments.

UBR2 = molecular target: T2, UBR2 (Rattus norvegicus, UniProt A0A8I5YBG5); test: UBR box domain binding strength by immunoprecipitation analysis, UBR2; type: cell-based; conditions: L6 cell line, compound 5 uM, 24 hours, immunoprecipitation and immunoblotting
T2 construct: endogenous in cells; host or cells: L6 rat muscle-derived cells
Protocol: as §1

UBR3 = molecular target: T3, UBR3 (Rattus norvegicus, UniProt D4A7F0); test: UBR box domain binding strength by immunoprecipitation analysis, UBR3; type: cell-based; conditions: L6 cell line, compound 5 uM, 24 hours, immunoprecipitation and immunoblotting
T3 construct: endogenous in cells; host or cells: L6 rat muscle-derived cells
Protocol: as §1

UBR5 = molecular target: T4, UBR5 (Rattus norvegicus, UniProt Q62671); test: UBR box domain binding strength by immunoprecipitation analysis, UBR5; type: cell-based; conditions: L6 cell line, compound 5 uM, 24 hours, immunoprecipitation and immunoblotting
T4 construct: endogenous in cells; host or cells: L6 rat muscle-derived cells
Protocol: as §1

UBR box of Human UBR1 = molecular target: T5, UBR box of Human UBR1 (Homo sapiens, UniProt Q8IWV7); test: UBR box domain binding by microscale thermophoresis (MST); conditions: RED-NHS labeled UBR1 UBR box protein (Gln97-Pro168), FIGS. 12 to 19
T5 construct: A Gln97-Pro168 portion corresponding to the UBR box of Human UBR1; made in house; host or cells: E. coli
Protocol: A Gln97-Pro168 portion corresponding to the UBR box of Human UBR1 (UniProt ID: Q81WV7) was cloned into a modified expression vector, and then expressed in E. coli. After affinity chromatography was used, a tag was removed by a protease, and then Gly-His-Met was added to the N-terminal. After ion chromatography was performed, a final UBR box protein of a UBR1 was purified using gel filtration chromatography in a buffer composition of 10 mM NaCl, 20 mM Tris-HCl, 2 mM beta-mercaptoethanol, and pH 7.5.
A dye of the Monolith protein labeling kit RED-NHS 2nd generation (Cat #MO-L011) has an NHS-ester group that forms a covalent bond with primary amines (lysine residues). This dye is optimized for a Monolith-series device equipped with a RED detector. A purified UBR1 UBR box protein was labeled according to the presented protocol using this kit.
Thermophoresis refers to a phenomenon in which particles move due to a temperature gradient. Particles present in a high temperature region have greater kinetic energy than particles present in a low temperature region, and more frequently collide with surrounding particles with greater energy. As a result, particles move from the high temperature region to the low temperature region.
Thermophoresis of proteins is typically different from that of protein-ligand complexes. This is because the binding of the ligand changes its size, electric charge, and solvation energy. […] Therefore, the binding of the UBR1 UBR box protein and the ligand compound was measured using MST, and it was confirmed that the presented ligand binds to the UBR1 UBR box (see FIGS. 12 to 19).

T1 sequence (A0A8I5ZK69 1-1749): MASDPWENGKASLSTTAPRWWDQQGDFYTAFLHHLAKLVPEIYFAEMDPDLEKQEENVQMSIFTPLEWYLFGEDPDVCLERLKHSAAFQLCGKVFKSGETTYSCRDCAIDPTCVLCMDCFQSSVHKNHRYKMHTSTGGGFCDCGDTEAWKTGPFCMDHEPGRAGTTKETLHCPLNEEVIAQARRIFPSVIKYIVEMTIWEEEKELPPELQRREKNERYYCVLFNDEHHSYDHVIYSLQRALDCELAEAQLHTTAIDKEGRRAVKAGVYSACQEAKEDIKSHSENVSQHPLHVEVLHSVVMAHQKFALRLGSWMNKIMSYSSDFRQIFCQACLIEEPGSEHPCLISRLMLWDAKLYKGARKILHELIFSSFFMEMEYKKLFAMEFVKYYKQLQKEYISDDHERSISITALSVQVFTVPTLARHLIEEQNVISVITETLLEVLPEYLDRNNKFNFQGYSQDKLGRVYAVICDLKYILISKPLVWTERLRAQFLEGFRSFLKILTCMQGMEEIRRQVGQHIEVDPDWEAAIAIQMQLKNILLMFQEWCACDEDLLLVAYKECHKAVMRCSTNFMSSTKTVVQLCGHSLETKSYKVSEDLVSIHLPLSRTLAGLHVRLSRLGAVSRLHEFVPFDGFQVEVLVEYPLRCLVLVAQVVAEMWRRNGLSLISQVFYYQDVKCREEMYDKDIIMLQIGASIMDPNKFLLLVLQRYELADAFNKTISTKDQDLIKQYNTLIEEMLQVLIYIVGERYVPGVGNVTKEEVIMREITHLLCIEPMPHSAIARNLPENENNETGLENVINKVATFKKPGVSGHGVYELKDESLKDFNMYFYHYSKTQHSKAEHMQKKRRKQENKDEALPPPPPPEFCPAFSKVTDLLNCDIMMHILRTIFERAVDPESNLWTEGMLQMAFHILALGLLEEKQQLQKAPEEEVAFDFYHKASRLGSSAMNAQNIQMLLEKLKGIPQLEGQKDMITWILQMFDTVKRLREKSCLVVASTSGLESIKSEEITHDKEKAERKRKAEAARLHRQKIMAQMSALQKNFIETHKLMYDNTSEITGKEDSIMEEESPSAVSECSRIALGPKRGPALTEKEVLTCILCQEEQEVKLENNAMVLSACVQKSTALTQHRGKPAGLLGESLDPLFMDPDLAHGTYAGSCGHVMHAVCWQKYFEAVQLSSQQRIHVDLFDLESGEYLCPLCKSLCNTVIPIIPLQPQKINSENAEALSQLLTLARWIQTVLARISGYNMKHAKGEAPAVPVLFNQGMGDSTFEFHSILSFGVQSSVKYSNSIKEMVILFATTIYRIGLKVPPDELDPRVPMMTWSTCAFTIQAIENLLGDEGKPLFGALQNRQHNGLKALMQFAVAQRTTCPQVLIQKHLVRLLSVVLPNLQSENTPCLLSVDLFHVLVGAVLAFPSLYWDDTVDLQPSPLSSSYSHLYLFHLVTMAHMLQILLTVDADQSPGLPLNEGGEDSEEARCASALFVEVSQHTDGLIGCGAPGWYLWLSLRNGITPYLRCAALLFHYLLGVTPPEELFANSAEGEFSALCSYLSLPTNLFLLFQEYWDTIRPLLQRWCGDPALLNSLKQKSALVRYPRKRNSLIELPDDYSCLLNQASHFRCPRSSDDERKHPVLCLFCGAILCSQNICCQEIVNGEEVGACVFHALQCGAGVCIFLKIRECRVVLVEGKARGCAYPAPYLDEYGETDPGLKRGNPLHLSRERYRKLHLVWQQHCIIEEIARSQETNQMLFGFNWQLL
T5 sequence (Q8IWV7 97-168): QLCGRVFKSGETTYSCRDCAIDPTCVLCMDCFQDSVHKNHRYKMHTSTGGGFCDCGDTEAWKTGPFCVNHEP
T4 sequence (Q62671 whole entry, the tested form may be a part): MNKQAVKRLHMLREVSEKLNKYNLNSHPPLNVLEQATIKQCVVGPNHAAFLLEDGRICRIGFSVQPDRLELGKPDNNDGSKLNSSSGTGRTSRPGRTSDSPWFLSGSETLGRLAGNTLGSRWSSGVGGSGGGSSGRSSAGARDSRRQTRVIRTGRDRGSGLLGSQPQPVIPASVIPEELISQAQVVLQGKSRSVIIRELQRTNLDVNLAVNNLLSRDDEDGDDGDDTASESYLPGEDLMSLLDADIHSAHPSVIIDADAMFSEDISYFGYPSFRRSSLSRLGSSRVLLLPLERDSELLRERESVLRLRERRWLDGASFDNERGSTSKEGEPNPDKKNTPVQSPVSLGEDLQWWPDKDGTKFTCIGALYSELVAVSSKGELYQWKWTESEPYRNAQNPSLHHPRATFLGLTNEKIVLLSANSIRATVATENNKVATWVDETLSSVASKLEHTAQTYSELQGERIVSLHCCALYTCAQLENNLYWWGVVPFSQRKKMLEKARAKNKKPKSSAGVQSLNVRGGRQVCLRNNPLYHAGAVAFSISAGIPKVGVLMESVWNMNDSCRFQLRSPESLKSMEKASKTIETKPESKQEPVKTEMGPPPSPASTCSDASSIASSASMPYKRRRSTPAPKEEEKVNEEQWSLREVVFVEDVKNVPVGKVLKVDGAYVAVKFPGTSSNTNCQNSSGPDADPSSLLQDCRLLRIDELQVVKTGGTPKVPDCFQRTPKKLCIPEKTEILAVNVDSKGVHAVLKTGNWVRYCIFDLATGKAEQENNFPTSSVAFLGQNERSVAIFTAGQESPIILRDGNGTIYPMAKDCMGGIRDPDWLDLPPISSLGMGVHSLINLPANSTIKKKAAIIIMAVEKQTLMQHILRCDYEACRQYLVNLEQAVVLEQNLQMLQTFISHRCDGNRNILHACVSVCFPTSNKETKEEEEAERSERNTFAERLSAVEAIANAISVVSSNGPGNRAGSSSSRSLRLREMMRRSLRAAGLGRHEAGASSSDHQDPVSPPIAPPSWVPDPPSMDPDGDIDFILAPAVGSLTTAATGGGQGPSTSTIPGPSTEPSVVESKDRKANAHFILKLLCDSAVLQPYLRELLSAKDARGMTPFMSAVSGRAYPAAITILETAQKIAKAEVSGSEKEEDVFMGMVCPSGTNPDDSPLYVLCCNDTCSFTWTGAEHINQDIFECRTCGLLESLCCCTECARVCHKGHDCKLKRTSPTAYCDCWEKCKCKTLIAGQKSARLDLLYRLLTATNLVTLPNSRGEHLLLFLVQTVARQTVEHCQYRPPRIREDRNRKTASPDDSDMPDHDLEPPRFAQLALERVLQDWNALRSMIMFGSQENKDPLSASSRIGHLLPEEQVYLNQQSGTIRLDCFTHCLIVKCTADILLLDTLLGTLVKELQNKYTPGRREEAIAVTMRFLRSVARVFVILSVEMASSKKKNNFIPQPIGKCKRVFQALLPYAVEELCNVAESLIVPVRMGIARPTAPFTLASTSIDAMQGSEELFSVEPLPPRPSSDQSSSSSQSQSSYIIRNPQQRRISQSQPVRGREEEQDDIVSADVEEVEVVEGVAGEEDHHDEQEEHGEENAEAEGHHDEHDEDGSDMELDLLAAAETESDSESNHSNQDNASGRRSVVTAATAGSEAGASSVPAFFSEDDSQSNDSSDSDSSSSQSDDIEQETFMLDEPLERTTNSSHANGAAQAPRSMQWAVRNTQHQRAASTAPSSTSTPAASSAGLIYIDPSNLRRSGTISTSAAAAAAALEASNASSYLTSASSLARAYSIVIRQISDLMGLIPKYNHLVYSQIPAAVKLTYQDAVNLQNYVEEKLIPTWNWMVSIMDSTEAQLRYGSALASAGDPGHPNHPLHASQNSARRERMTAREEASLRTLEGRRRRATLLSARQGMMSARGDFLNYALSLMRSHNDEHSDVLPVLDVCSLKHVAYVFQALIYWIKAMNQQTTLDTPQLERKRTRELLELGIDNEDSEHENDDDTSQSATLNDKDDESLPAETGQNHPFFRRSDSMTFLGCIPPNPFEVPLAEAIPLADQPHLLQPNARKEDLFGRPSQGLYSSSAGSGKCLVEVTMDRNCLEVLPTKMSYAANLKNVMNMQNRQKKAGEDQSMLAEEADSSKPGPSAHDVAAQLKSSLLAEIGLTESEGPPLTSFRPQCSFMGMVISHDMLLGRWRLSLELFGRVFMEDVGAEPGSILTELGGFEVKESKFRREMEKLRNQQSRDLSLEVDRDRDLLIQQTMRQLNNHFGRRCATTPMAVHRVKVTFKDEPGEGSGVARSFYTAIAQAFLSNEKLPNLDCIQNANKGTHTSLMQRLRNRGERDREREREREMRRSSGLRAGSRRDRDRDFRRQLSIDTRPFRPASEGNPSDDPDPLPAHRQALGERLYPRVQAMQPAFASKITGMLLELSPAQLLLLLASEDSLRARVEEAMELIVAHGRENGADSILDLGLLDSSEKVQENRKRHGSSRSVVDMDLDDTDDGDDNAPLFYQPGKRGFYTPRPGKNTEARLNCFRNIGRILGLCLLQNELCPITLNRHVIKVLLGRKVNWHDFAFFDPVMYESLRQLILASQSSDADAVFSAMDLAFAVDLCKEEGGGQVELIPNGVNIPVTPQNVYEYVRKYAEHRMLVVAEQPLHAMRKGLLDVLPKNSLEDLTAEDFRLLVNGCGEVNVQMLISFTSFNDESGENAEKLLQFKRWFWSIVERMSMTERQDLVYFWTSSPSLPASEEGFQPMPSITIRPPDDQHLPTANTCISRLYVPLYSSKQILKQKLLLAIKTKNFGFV

Row | SMILES | level of ACTA1 compared to a control (L6 cell line) | level of ACTC1 compared to a control (L6 cell line) | level of ACTG2 compared to a control (L6 cell line) | binding strength between UBR1 and a substrate ACTA1 (UBR1 [1]; MG132 10 uM as negative control) | level of R-nsP4 compared to the control (UBR1 [2]) | level of RGS4 compared to the control (UBR1 [3]) | level of ACTA1 compared to the control (UBR1 [4]) | binding strength of UBR1 and ACTA1 (UBR1 [1]; compound 5 uM) | binding strength of UBR2 and ACTA1 (UBR2) | binding strength of UBR3 and ACTA1 (UBR3) | binding strength of UBR5 and ACTA1 (UBR5) | binding to UBR1 UBR box (MST) (UBR box of Human UBR1)
1 | CC(C)C[C@@H](C=O)NC(=O)[C@H](CC(C)C)NC(=O)[C@H](CC(C)C)NC(=O)OCc1ccccc1 [MG132] (Cbz-Leu-Leu-Leu-aldehyde) | increased | increased | increased | maintained |  |  |  |  |  |  |  | 
2 | Nc1ccc(S(=O)(=O)NNC(=O)c2ccc(O)cc2)cc1 [Compound 2, 4-amino-N′-(4-hydroxybenzoyl)benzenesulfonohydrazide] |  |  |  |  | increased | increased | further increased | reduced | reduced | reduced | reduced | binds

— US12559455B2, “Compound as a UBR box domain ligand” (AUTOTAC INC., priority 2020, dated 2026)
